Melting point data for 125 compounds are collected here from a melting point compilation (Tetko et al.).

The compound `Cc1ccc(-n2ccnc2)c(C(=O)O)c1` registered a melting point of 259 to 261 °C.

Compound `Cc1cc(N)nn1-c1cccc(F)c1` yielded a melting point of 69 to 71 °C. `O=C(c1ccccc1)c1c(Cl)cccc1Cl` showed a melting point of 82 to 84 °C. As for `C=CC(=O)Nc1cccc(C(F)(F)F)c1`, the figure is 79 to 81 °C; as for `C=CC(=O)NC(=O)Nc1ccccc1`, 149 to 151 °C. Then `CC(C)(C)c1nccc(N)n1`, with 64 to 66 °C; and `CN(C)S(=O)(=O)c1cccc(N=C=S)c1`, with 47 to 49 °C.

With `Cc1cc(C(=O)O)sc1-c1ccc(F)cc1`, the melting point was in the range of 206 to 208 °C.

Regarding `NC(=O)c1csc(Br)c1`, the melting point was in the range of 142 to 144 °C. With `Cc1nc(CC(N)=NO)cs1`, the melting point fell in the range of 139 to 141 °C. As for `Nc1ccc(S(=O)(=O)N2CCCC(C(=O)O)C2)cc1` (stereo not given), the figure is 195 to 197 °C. Then `Cc1cc(=O)oc2cc(OCC(=O)O)ccc12`, with 206 to 208 °C; and `CC(C)(C)C(=O)Nc1cn[nH]c1`, with 200 to 202 °C; and `Nc1nnc(C2Cc3ccccc3O2)o1` (stereo not given), with 198 to 200 °C. With `NC(Cc1cccc2cccnc12)=NO`, the melting point was in the range of 172 to 174 °C.

The compound `NS(=O)(=O)c1c[nH]c(=O)[nH]c1=O` registered a melting point of 299 to 301 °C.

Take `O=C(O)c1cnc(-c2ncccn2)s1`: the melting point was in the range of 217 to 219 °C. Compound `COc1ccc2c(c1)-c1sc(N)nc1CC2` came in with a melting point of 179 to 181 °C.

Compound `Cc1nc(N)n(-c2ccccc2)n1` gave a melting point of 131 to 133 °C. As for `NNC(=O)CCc1ccco1`, the figure is 72 to 74 °C; as for `Nn1cnnc1-c1ccccc1`, 115 to 117 °C. As for `O=C(O)CCc1cc(Br)cs1`, the figure is 76 to 78 °C. As for `Cc1csc(-c2cccc(O)c2)n1`, the figure is 108 to 110 °C; as for `Brc1ccc(-n2cccn2)cc1`, 69 to 71 °C; as for `CNC(=O)NC(C)(C)C(=O)O`, 139 to 141 °C.

In turn, `O=C(O)CCOc1ccccc1Cl` had a melting point of 115 to 117 °C.

`CCOCCCNC(=S)NCc1ccc(OC)cc1` returned a melting point of 39 to 41 °C. The compound `CC(O)(CN)c1ccc(F)cc1` (stereo not given) gave a melting point of 69 to 71 °C. `COc1ccc(CCNC(C)=O)cc1S(N)(=O)=O` yielded a melting point of 194 to 196 °C.

Regarding `Cc1cc(=O)[nH]c(-c2cccc(O)c2)n1`, the melting point was in the range of 213 to 215 °C. `CCCc1cc(O)c2ccccc2n1` registered a melting point of 168 to 170 °C. Then `CN(C)c1ccc(CNC(=O)CCl)cc1`, with 59 to 61 °C. Compound `COCc1csc(N)n1` came in with a melting point of 109 to 111 °C. As to `Cc1cnc2c(c1)NCCO2`, the melting point lay within 109 to 111 °C.

For `CN1CCc2nc3ccccc3c(C(=O)O)c2C1`, the melting point fell in the range of 254 to 256 °C.

As for `Cc1cccc(C)c1C(C)O` (stereo not given), the melting point was in the range of 59 to 61 °C. Consider `O=c1cc(CO)nc2ccccn12`, for which the melting point fell in the range of 172 to 174 °C. As for `Cc1nn(-c2ccccc2)c(N2CCCCC2)c1C=O`, the figure is 75 to 77 °C; as for `Cc1c[nH]c(=O)n1-c1ccccc1N`, 194 to 196 °C. As for `Cc1nn(CC(=O)O)c(C)c1[N+](=O)[O-]`, the melting point lay within 179 to 181 °C. `Cc1nn2cnnc2c(C)c1CCC(=O)O` yielded a melting point of 253 to 255 °C. Then `CC1(C)CC(=O)c2ccc(O)cc2O1`, with 168 to 170 °C; and `CC(Cl)C(=O)NC1CCCCC1` (stereo not given), with 98 to 100 °C; and `Nc1ccc(S(=O)(=O)Nc2ccc(Cl)cc2)cc1`, with 180 to 182 °C. Then `COc1ccc(C(=O)O)cc1S(=O)(=O)NC1CCCCC1C` (stereo not given), with 201 to 203 °C; and `COc1ccc(COc2ccc(C#N)cn2)cc1`, with 101 to 103 °C. `Nc1nonc1-c1ccc(Br)cc1` registered a melting point of 141 to 143 °C. As to `NS(=O)(=O)c1cn[nH]c1`, the melting point is 200 to 202 °C. As for `N#CCC(=O)c1ccc(F)c(C(F)(F)F)c1`, the figure is 51 to 53 °C; as for `CC(C)NC(=O)c1cn[nH]c1N`, 179 to 181 °C. `O=C(O)C1CC1c1cc(Cl)cc(Cl)c1` (stereo not given) had a melting point of 134 to 136 °C.

In the case of `CC(C)Oc1ccc(Cl)cc1C(=O)O`, the melting point is 83 to 85 °C. In turn, `Nc1ncn(Cc2ccc(Br)cc2)n1` showed a melting point of 169 to 171 °C. For `O=C(O)C1CCN(S(=O)(=O)Cc2ccccc2)CC1`, the melting point fell in the range of 191 to 193 °C. Then `O=C(O)c1cccnc1Oc1ccc(Br)cc1`, with 177 to 179 °C; and `CN1CCN(C(=O)C2CCc3ccccc3N2)CC1` (stereo not given), with 113 to 115 °C. Then `COC(=O)c1cc2c(C)c(C)ccc2[nH]1`, with 144 to 146 °C; and `Nc1ccccc1NC(=O)c1ccccc1I`, with 189 to 191 °C. In turn, `CN1CCN(c2ncc(Br)cc2CO)CC1` displayed a melting point of 140 to 142 °C. For `Nc1ccc2cccc(Br)c2n1`, the melting point was in the range of 152 to 154 °C. The compound `O=C(O)CC1(CC(=O)c2ccc(Cl)s2)CCCCC1` had a melting point of 102 to 104 °C. Take `Nc1nc(-c2ccc(Cl)s2)ns1`: the melting point was 151 to 153 °C. Regarding `O=S(=O)(O)c1ccc2[nH]cnc2c1`, the melting point was 359 to 361 °C.

On to `COc1nc(Cl)c(C=O)s1`, for which the melting point lay within 43 to 45 °C.

Consider `COCCn1c(S)nc2ccccc21`, for which the melting point was in the range of 127 to 129 °C.

The compound `Cc1cc(C(=O)O)sc1C=O` gave a melting point of 204 to 206 °C. `COc1ccc(S(=O)(=O)N2CCCCCC2)cc1N` showed a melting point of 118 to 119 °C.

As to `CC(C)(C)OC(=O)Nc1ccc(C(=O)O)c(Cl)c1`, the melting point was 169 to 171 °C. Then `OCCN1CCSCC1`, with 34 to 36 °C; and `Cc1nc(S)c2c(=O)n(C)c(=O)n(CC(C)C)c2n1`, with 172 to 174 °C. As for `CC(C)(C)c1nccc(=O)[nH]1`, the figure is 205 to 207 °C; as for `CC(Cc1ccc(Cl)cc1Cl)C(=O)O` (stereo not given), 49 to 51 °C. On to `COC(=O)c1ccc(Oc2ccc(Cl)cc2N)cc1`, for which the melting point was in the range of 83 to 85 °C. Take `CSc1nc(C(=O)O)c2ccccn12`: the melting point lay within 202 to 204 °C. For the compound `Cc1c(NC(=O)C(C)Sc2nnc(N)s2)c(=O)n(-c2ccccc2)n1C` (stereo not given), the melting point fell in the range of 143 to 147 °C. As to `CC(C)(C)n1ncc(C#N)c1N`, the melting point lay within 90 to 92 °C. As for `CC(C)(C(=O)O)c1cccc(Cl)c1`, the melting point fell in the range of 65 to 67 °C. `O=C(O)c1sc(Cl)nc1Cl` displayed a melting point of 164 to 166 °C. In turn, `CCc1noc2ncc(C(=O)O)cc12` gave a melting point of 193 to 195 °C.

`Nc1ccc(Oc2ccccc2)cn1` showed a melting point of 67 to 69 °C. In the case of `O=C(O)CCCNC(=O)c1ccco1`, the melting point is 91 to 93 °C. As for `Cn1c(Cl)cc(=O)[nH]c1=O`, the figure is 195 to 197 °C.

On to `COC(=O)Cc1ccccc1O`, for which the melting point was 69 to 71 °C. With `CCOc1ccc(Br)cc1S(N)(=O)=O`, the melting point fell in the range of 143 to 145 °C.

On to `O=C(O)CCC(=O)c1ccc2c(c1)CCC2`, for which the melting point lay in the range of 123 to 125 °C. `COc1cc(C=O)cc(Br)c1OCc1ccccc1`: the melting point fell in the range of 48 to 50 °C. As for `Cc1sc2ncnc(N3CCC(C(=O)O)CC3)c2c1C`, the figure is 244 to 246 °C; as for `Cc1cc(C(=O)O)c(N)s1`, 126 to 128 °C; as for `CC(=O)c1ccc(-n2cnc3ccccc32)cc1`, 135 to 137 °C. As for `O=C(O)c1ccc2c(c1)S(=O)(=O)N(C1CC1)C2=O`, the figure is 283 to 285 °C. As for `COCCNC(=O)Cc1ccc(N)cc1`, the figure is 50 to 52 °C; as for `COc1ccc2c(c1)CCC(=O)N2`, 141 to 143 °C.

Compound `COC(C)c1nc(CC(=O)O)cs1` (stereo not given) gave a melting point of 154 to 156 °C. As for `CN(CC(=O)O)C(=O)C1CC1`, the figure is 112 to 114 °C; as for `CS(=O)Cc1c(C(=O)O)sc2ccccc12` (stereo not given), 183 to 185 °C. Compound `Cc1n[nH]c(N)c1C#N` showed a melting point of 160 to 162 °C. Then `COc1ccc2ncc(=O)[nH]c2c1`, with 179 to 181 °C; and `CCOC(=O)c1c(-c2ccccc2)csc1NC(=O)CCCl`, with 64 to 66 °C. `O=S(=O)(Cl)c1ccc(OCC(F)(F)F)nc1` yielded a melting point of 55 to 57 °C. On to `CS(=O)(=O)c1ccc(Cl)s1`, for which the melting point lay within 69 to 71 °C. `Cc1ccc(C(=O)CBr)cc1[N+](=O)[O-]`: the melting point was 45 to 47 °C.

Turning to `N#Cc1ccc2ocnc2c1`, the melting point fell in the range of 87 to 89 °C.

On to `O=C(O)COc1ccccc1OCc1ccc(F)cc1`, for which the melting point lay in the range of 108 to 110 °C. Then `COCc1c(C(=O)O)sc2cccc(F)c12`, with 130 to 139 °C; and `CNc1cc(-c2cccc(OC)c2)[nH]n1`, with 109 to 111 °C; and `Cc1c(CN)cnn1C`, with 38 to 40 °C. As for `Nc1cc(C2CCOCC2)no1`, the figure is 159 to 161 °C; as for `O=C(O)c1sccc1S(=O)(=O)N1CCCCC1`, 111 to 113 °C; as for `O=[N+]([O-])c1ccc(Oc2ccc([N+](=O)[O-])cc2)cc1`, 144 to 146 °C. `O=C(O)c1sccc1-c1ccccc1` gave a melting point of 206 to 208 °C. In turn, `CSc1nc2ncccc2o1` registered a melting point of 62 to 64 °C. For the compound `CC(C)COC(=O)Nc1cccc(N)c1`, the melting point fell in the range of 92 to 94 °C. Then `CC(=O)c1c(C)[nH]c(C(=O)CCl)c1C`, with 170 to 180 °C.

`CCOC(=O)c1sc(-c2ccc(OC)cc2)cc1N` returned a melting point of 120 to 122 °C. Turning to `O=C(O)C1(Br)CCCC1`, the melting point was in the range of 66 to 68 °C. `S=C(Nc1ccccc1)N1CCCCC1` returned a melting point of 99 to 101 °C. Then `ON=Cc1ccccc1OCc1cn2ccccc2n1`, with 197 to 199 °C; and `COC(=O)C(=O)NN`, with 115 to 117 °C. Then `COC(=O)c1n[nH]c(N)n1`, with 218 to 222 °C. `Nc1ccc2c(N)n[nH]c2c1` yielded a melting point of 209 to 211 °C.

As for `Cc1cc(C(=O)O)ccc1S(=O)(=O)Cl`, the melting point is 197 to 199 °C. Turning to `CCCN1CCc2c(sc(N)c2C(N)=O)C1`, the melting point fell in the range of 139 to 141 °C. Then `NS(=O)(=O)c1ccc(SCC(=O)O)cc1`, with 157 to 159 °C. `CNC(=O)NC(=O)C(Cl)c1ccccc1` (stereo not given) displayed a melting point of 130 to 132 °C. `Oc1ccnc2cc(Cl)c(Br)cc12`: the melting point was 369 to 371 °C.

By melting point is commonly meant the temperature, or range, at which the solid turns liquid.
